Measurements published in patent US6287840A (Axys Pharmaceuticals, Inc., priority 1999, dated 2001).
pKi: −log10 of the molar value. Read-outs that look alike come from different tables or passages of the source.

Assays:
Cloned cathepsin S = target: T1, Cloned cathepsin S (Homo sapiens, UniProt P25774); test: Inhibition of cathepsin S, Z-Val-Val-Arg-AMC fluorescence progress curves; format: biochemical; details: for pKi: corrected for substrate; for k/KI (kirr/KI): values without asterisk, 25° C., pH 6.5
T1 construct: made in house
In short: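 Progress curves at 25 °C in 100 mM phosphate pH 6.5, 2.5 mM DTT, 2.5 mM EDTA, 0.01% Triton, enzyme <1 nM, 10 μM substrate, inhibitors 30-0.001 μM; AMC fluorescence ex 380/em 460 nm. kobs from nonlinear fits gave kobs/[I]; selected compounds yielded kirr, KI (substrate-corrected), kirr/KI.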

cruzain, from T. cruzi = cruzain, from T. cruzi (Trypanosoma cruzi, UniProt P25779); test: Inhibition of cruzain, as for cathepsin L; format: biochemical; details: for k/KI (kirr/KI): values without asterisk
In short: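 Run as for cathepsin L with 1 nM cruzain in 50 mM phosphate pH […], 2.5 mM DTT, 2.5 mM EDTA, 5 μM Z-Phe-Arg-AMC, at 25 °C, inhibitors 30-0.001 μM; fluorescence (ex 380/em 460 nm) followed continuously. kobs fitted from progress curves and kobs/[I] reported; selected compounds gave kirr, KI, kirr/KI, with KI corrected by (1+[S]/Km).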

[1] = test system: Trypanosoma brucei extracellular bloodstream forms; test: In vitro antiprotozoal activity, Trypanosoma brucei; format: cell-based
Procedure: In this table, the in vitro antiprotozoal activities of the indicated compounds were measured as percentage inhibition of Leishmania donovani amastigote infecteda mouse peritoneal macrophages, Trypanosoma cruzi amastigote infected macrophages, and Trypanosoma brucei extracellular bloodstream forms.

[2] = test system: human malarial parasite Plasmodium falciparum; test: In vitro protease activity of malarial parasite, substrate Z-Phe-Arg-AMC; format: biochemical; details: cells printed in nM; read-out: P. falciparum IC50 (human)
Excerpt: (§1) The following table summarizes the comparative IC50 values for selected cysteine protease inhibitors against the human malarial parasite Plasmodium falciparum and the mouse malarial parasite Plasmodium vinckei. The substrate used to measure in vitro protease activity was Z-Phe-Arg-AMC.

[3] = test system: mouse malarial parasite Plasmodium vinckei; test: as above; format: biochemical; details: cells printed in nM; read-out: P. vinckei IC50 (murine)
Excerpt: as §1

Female Lewis rats = test: Mycobacterium butyricum induced arthritis in rats, compound in chow, 28 days; format: in vivo, rat
Procedure: At day zero, Female Lewis rats (5/group), 5 weeks old, were given intradermal injection into the base of the tail of Mycobacterium butyricum in 0.1 ml of light mineral oil. The animals were provided Teklad (4%) rat chow mixed with (treated groups) or without compound (control group) and water ad libilum. The compounds used were Mu-Phe-HphVSPh, Mu-Leu-HphVSPh, Mu-Tyr-HphVSPh, Mu-Phe-Lys(ε-Z)VSPh, Mu-Phe-LysVSPh-HBr. The compounds were given to three groups at 3, 10, and 30 mg/kg/day, respectively. The following parameters were noted: biweekly weights and biweekly joint evaluations by the following scoring system: paw swelling 0=no edema, 1=slight edema of small digital joints, 2=edema of the digital joints and foot pad, 3=gross edema of the entire foot pad below that ankle or elbow, 4=gross edema of the entire foot pad including the ankle and elbow joint Erythema was scored as: 0=normal, 1=pink, 2=red, 3=deep violaceous. The evaluators were blinded as to treatment groups.
After 28 days the animals were killed and the hind paws and knees were removed and fixed in 4% paraformaldehyde. […] Joint histopathology scores were calculated by the following method: two sections of each joint were read for synovial cell proliferation, cartilage erosion, bone erosion, fibroproliferative pannus, diffuse inflammatory synovitis, and synovial vasculitis: 0=normal, 1=mild, 2=moderate, 3=and severe. […]

T1 sequence (P25774 115-331): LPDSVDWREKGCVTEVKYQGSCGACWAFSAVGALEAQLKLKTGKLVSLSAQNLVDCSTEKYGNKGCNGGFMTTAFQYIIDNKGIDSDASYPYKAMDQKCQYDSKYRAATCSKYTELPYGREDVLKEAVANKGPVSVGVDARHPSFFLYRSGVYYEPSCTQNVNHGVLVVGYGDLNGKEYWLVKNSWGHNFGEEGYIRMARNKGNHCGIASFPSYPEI
Sequence of cruzain, from T. cruzi (P25779 123-337 limits assumed): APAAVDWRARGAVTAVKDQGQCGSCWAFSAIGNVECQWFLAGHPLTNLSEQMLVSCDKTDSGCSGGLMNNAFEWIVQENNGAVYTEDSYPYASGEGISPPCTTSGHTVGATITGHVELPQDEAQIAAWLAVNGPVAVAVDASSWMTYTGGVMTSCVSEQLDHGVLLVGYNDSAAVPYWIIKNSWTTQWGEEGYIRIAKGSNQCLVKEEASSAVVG

| Compound | kirr (Cloned cathepsin S) [s⁻¹] | pKi (Cloned cathepsin S) | pKi (Cloned cathepsin S; listed as Mu-Phe-Hph-VSPh) | kirr (Cloned cathepsin S; listed as Mu-Phe-Hph-VSPh) [s⁻¹] | k/KI (kirr/KI) (Cloned cathepsin S) | k/KI (kirr/KI) (Cloned cathepsin S; listed as Mu-Phe-Hph-VSPh) | pKi (cruzain, from T. cruzi) | kirr (cruzain, from T. cruzi) [s⁻¹] | k/KI (kirr/KI) (cruzain, from T. cruzi) | ED50, T. brucei [1] [nM] | percentage inhibition, T. brucei ([1]; 1 uM) [%] | percentage inhibition, T. brucei ([1]; 3 uM) [%] | percentage inhibition, T. brucei ([1]; 10 uM) [%] | percentage inhibition, T. brucei ([1]; 30 uM) [%] | percentage inhibition, T. brucei ([1]; 90 uM) [%] | IC50 [2] [nM] | IC50 [3] [nM] | effect on all scores (paw swelling, erythema, joint histopathology) (Female Lewis rats; 3, 10, and 30 mg/kg/day in chow, 28 days) | bone and cartilage destruction (Female Lewis rats; high dose) |
| --- | --- | --- | --- | --- | --- | --- | --- | --- | --- | --- | --- | --- | --- | --- | --- | --- | --- | --- | --- |
| O=C(N[C@H](/C=C/S(=O)(=O)c1ccccc1)CCc1ccccc1)C(Cc1ccccc1)NC(=O)N1CCOCC1 (stereo partly drawn) [Mu-Phe-HphVSPh, (S)-(E)-3-(4-morpholinecarbonyl-phenylalanyl)amino-5-phenyl-1-phenylsulfonyl-1-pentene] | 0.085 | 7.96 | 7.64 | 0.15 | 7,700,000 M^-1 sec^-1 | 6,500,000 M^-1 sec^-1 | 5.49 | 0.43 | 134,000 M^-1 sec^-1 | 2190 | 10.2 | 90.5 | 82.7 | 100 | 100 | 80 | 50 | dose dependent beneficial effect on all scores | – |
| CC(C)C[C@H](NC(=O)N1CCOCC1)C(=O)N[C@H](/C=C/S(=O)(=O)c1ccccc1)CCc1ccccc1 [Mu-Leu-HphVSPh, (S)-(E)-3-(4-morpholinecarbonylleucyl)amino-5-phenyl-1-phenylsulfonyl-1-pentene] | 0.16 | 8.23 | – | – | 26,300,000 M^-1 sec^-1 | – | 6.28 | 0.11 | 213,000 M^-1 sec^-1 | – | – | 11.2 | 82.2 | 84.7 | 100 | 3 | 200 | – | reduction in bone and cartilage destruction |
